In one assay the test system is Rhizoctonia solani. The experiment in a line: Rhizoctonia solani test (in vitro)/microtiter plates, Example 2. The settings on record: 96 h, read-out: % efficacy.
A further assay relates to Coriolus versicolor. The assay can be described thus: microbe, parasite or virus in culture. The settings on record: Trametes versicolor, 72 h, read-out: % efficacy.
The test system of assay [1] is Pyricularia oryzae. The experiment in a line: microbe, parasite or virus in culture. Type of assay: cell-based. The settings on record: 96 h, read-out: % efficacy.
For assay [2], the system named is Pyricularia oryzae. The assay can be described thus: microbe, parasite or virus in culture. Type of assay: cell-based. The conditions noted are these: 72 h, read-out: % efficacy.
Assay [3] deals with Pyricularia oryzae. The experiment in a line: microbe, parasite or virus in culture. Type of assay: cell-based. The conditions noted are these: 72 h, read-out: % efficacy. This is another data set of the same source.
In another assay the test system is Botrytis cinerea. The experiment in a line: Botrytis cinerea test (in vitro)/microtiter plates, Example 5. Type of assay: cell-based. The conditions noted are these: 72 h, single active compound, spore suspension in PDB, 3 days incubation, ipconazole as commercially available formulation, read-out: % efficacy.
Assay [4] concerns Pyricularia oryzae. The assay can be described thus: microbe, parasite or virus in culture. Type of assay: cell-based. The conditions noted are these: 120 h, read-out: % efficacy.

Like-named read-outs stand apart in the source and are kept apart here.

Consider `O=C(Nc1ccccc1-c1ccc(Cl)cc1)c1cccnc1Cl` [boscalid], for which, in the assay on Rhizoctonia solani, the Emax at 0.1 ppm was 67%. As to `CC1COC(Cn2cncn2)(c2ccc(Oc3ccc(Cl)cc3)cc2Cl)O1` (centres unmarked) [difenoconazole], the Emax at 0.03 ppm in the assay on Coriolus versicolor was determined as 93%. Regarding `CO/N=C(/C1=NOCCO1)c1ccccc1Oc1ncnc(Oc2ccccc2Cl)c1F` [fluoxastrobin], the Emax at 0.1 ppm in the assay on Rhizoctonia solani is 64%; with Pyricularia oryzae [1], 82%; with Pyricularia oryzae [2] it was 80%. Moreover, the Emax at 0.03 ppm with Coriolus versicolor worked out at 24%. Further, the Emax at 0.3 ppm in the assay with Pyricularia oryzae [3] is 84%; in the assay on Pyricularia oryzae [4] it was 86%. The Emax at 0.003 ppm in the assay with Botrytis cinerea turned out to be 9%.

For the compound `OC(Cn1cncn1)(c1ccc(F)cc1)c1ccccc1F` (centres unmarked) [flutriafol], the Emax at 0.3 ppm in the assay on Pyricularia oryzae [4] turned out to be 6%.

Consider `CC(C)C1CCC(Cc2ccc(Cl)cc2)C1(O)Cn1cncn1` (centres unmarked) [ipconazole], for which, in the assay on Botrytis cinerea, the Emax at 0.003 ppm turned out to be 3%. For `COCC(=O)N(c1c(C)cccc1C)[C@H](C)C(=O)OC` [mefenoxam, metalaxyl-M], the Emax at 0.3 ppm in the assay on Pyricularia oryzae [3] was 16%. For the compound `CCCCC(C#N)(Cn1cncn1)c1ccc(Cl)cc1` (centres unmarked) [myclobutanil], in the assay on Pyricularia oryzae [1], the Emax at 0.1 ppm was found to be 4%. Take `C=CCNC(=O)c1c([Si](C)(C)C)sc(C)c1C` [silthiofam]: the Emax at 0.1 ppm in the assay on Pyricularia oryzae [2] was 1%.

For the origin of these results see patent US20180014541A1, “FUNGICIDAL ACTIVE COMPOUND COMBINATIONS” (ARYSTA LIFESCIENCE CORPORATION, priority 2004, published 2018).
